Results published in patent US10681909B2, “Herbicidal triazoles” (FMC Corporation, priority 2014, dated 2020).

How the values were obtained:
pigweed [1] = experiment: Test A preemergence; format: in vivo, Amaranthus retroflexus; settings: 0 to 100 scale (0 no effect, 100 complete control)
Procedure, shortened: (§1)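 Pre- and postemergence spray tests in a loam soil–sand mixture: seeded soil received a directed spray, while established seedlings 2–10 cm high at the one- to two-leaf stage were treated over the top. Compounds were carried in non-phytotoxic solvent with surfactant.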

barnyardgrass [2] = experiment: Test A postemergence; format: in vivo, Echinochloa crus-galli; settings: 0 to 100 scale (0 no effect, 100 complete control), approx. 10 d
Procedure, shortened: as §1

foxtail, giant [3] = experiment: Test A postemergence; format: in vivo, Setaria faberii; settings: 0 to 100 scale (0 no effect, 100 complete control), approx. 10 d
Procedure, shortened: as §1

corn = experiment: Test A postemergence; format: in vivo, Zea mays; settings: 0 to 100 scale (0 no effect, 100 complete control), approx. 10 d
Procedure, shortened: as §1

rice = experiment: Test B flooded paddy test; format: in vivo, Oryza sativa; settings: 250 g ai/ha, applied to paddy water at 2-leaf stage, visual rating after 13 to 15 d, scale 0 (no effect) to 100 (complete control)
Procedure, shortened: (§2)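 Pots were flooded to 3 cm above the soil at treatment, and compounds were applied directly into the paddy water. That depth was held throughout. After 13 to 15 d in a greenhouse, plants were rated visually against untreated controls.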

ducksalad = experiment: Test B flooded paddy test; format: in vivo, Heteranthera limosa; settings: 250 g ai/ha, applied to paddy water at 2-leaf stage, visual rating after 13 to 15 d, scale 0 (no effect) to 100 (complete control)
Procedure, shortened: as §2

blackgrass = experiment: Test C postemergence; format: in vivo, Alopecurus myosuroides
Procedure, shortened: (§3)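 Pre: seeded into loam/sand, sprayed same time. Post: plants in peat moss–vermiculite mix with starter nutrients and dolomitic limestone, treated at 1- to 4-leaf stage (2 to 18 cm). Formulation: non-phytotoxic solvent blend plus surfactant.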

ryegrass, Italian = experiment: Test C postemergence; format: in vivo, Lolium multiflorum
Procedure, shortened: as §3

wheat (winter wheat) = experiment: Test C postemergence; format: in vivo, Triticum aestivum
Procedure, shortened: as §3

foxtail, giant [4] = experiment: Test C postemergence; format: in vivo, Setaria faberii
Procedure, shortened: as §3

johnsongrass = experiment: Test C postemergence; format: in vivo, Sorghum halepense
Procedure, shortened: as §3

nutsedge, yellow = experiment: Test C postemergence; format: in vivo, Cyperus esculentus
Procedure, shortened: as §3

pigweed [5] = experiment: Test C postemergence; format: in vivo, Amaranthus retroflexus
Procedure, shortened: as §3

ragweed = experiment: Test C postemergence; format: in vivo, Ambrosia elatior
Procedure, shortened: as §3

barnyardgrass [6] = experiment: Test C postemergence; format: in vivo, Echinochloa crus-galli
Procedure, shortened: as §3

oilseed rape = experiment: Test C postemergence; format: in vivo, Brassica napus
Procedure, shortened: as §3

velvetleaf = experiment: Test C postemergence; format: in vivo, Abutilon theophrasti
Procedure, shortened: as §3

chickweed = experiment: Test C postemergence; format: in vivo, Stellaria media
Procedure, shortened: as §3

oat, wild = experiment: Test C postemergence; format: in vivo, Avena fatua
Procedure, shortened: as §3

kochia = experiment: Test C postemergence; format: in vivo, Kochia scoparia
Procedure, shortened: as §3

SMILES: FC(F)(F)COc1nc(-c2ccccc2)nn1Cc1ccnc(C(F)(F)F)c1 [Compound 24]
- Plant response rating, Pigweed (pigweed [1]; 125 g ai/ha): 100
- Plant response rating, Pigweed (pigweed [1]; 500 g ai/ha, approx. 10 d): 100
- Plant response rating, Barnyardgrass (barnyardgrass [2]; 125 g ai/ha): 30
- Plant response rating, Barnyardgrass (barnyardgrass [2]; 500 g ai/ha): 70
- Plant response rating, Foxtail, Giant (foxtail, giant [3]; 125 g ai/ha): 70
- Plant response rating, Foxtail, Giant (foxtail, giant [3]; 500 g ai/ha): 90
- Plant response rating, Corn (corn; 125 g ai/ha): 20
- Plant response rating, Corn (corn; 500 g ai/ha): 40
- Plant response rating, Rice, Flood (rice): 0
- Plant response rating, Ducksalad, Flood (ducksalad): 30
- Plant response rating (scale of 0 to 100 where 0 is no effect and 100 is complete control) (blackgrass; 31 g ai/ha): 5
- Plant response rating (scale of 0 to 100 where 0 is no effect and 100 is complete control) (blackgrass; 62 g ai/ha): 5
- Plant response rating (scale of 0 to 100 where 0 is no effect and 100 is complete control) (blackgrass; 125 g ai/ha): 35
- Plant response rating (scale of 0 to 100 where 0 is no effect and 100 is complete control) (blackgrass; 250 g ai/ha): 35
- Plant response rating (scale of 0 to 100 where 0 is no effect and 100 is complete control) (ryegrass, Italian; 31 g ai/ha): 5
- Plant response rating (scale of 0 to 100 where 0 is no effect and 100 is complete control) (ryegrass, Italian; 62 g ai/ha): 5
- Plant response rating (scale of 0 to 100 where 0 is no effect and 100 is complete control) (ryegrass, Italian; 125 g ai/ha): 20
- Plant response rating (scale of 0 to 100 where 0 is no effect and 100 is complete control) (ryegrass, Italian; 250 g ai/ha): 25
- Plant response rating (scale of 0 to 100 where 0 is no effect and 100 is complete control) (wheat (winter wheat); 31 g ai/ha): 5
- Plant response rating (scale of 0 to 100 where 0 is no effect and 100 is complete control) (wheat (winter wheat); 62 g ai/ha): 5
- Plant response rating (scale of 0 to 100 where 0 is no effect and 100 is complete control) (wheat (winter wheat); 125 g ai/ha): 5
- Plant response rating (scale of 0 to 100 where 0 is no effect and 100 is complete control) (wheat (winter wheat); 250 g ai/ha): 5
- Plant response rating (scale of 0 to 100 where 0 is no effect and 100 is complete control) (foxtail, giant [4]; 31 g ai/ha): 15
- Plant response rating (scale of 0 to 100 where 0 is no effect and 100 is complete control) (foxtail, giant [4]; 62 g ai/ha): 20
- Plant response rating (scale of 0 to 100 where 0 is no effect and 100 is complete control) (foxtail, giant [4]; 125 g ai/ha): 20
- Plant response rating (scale of 0 to 100 where 0 is no effect and 100 is complete control) (foxtail, giant [4]; 250 g ai/ha): 20
- Plant response rating (scale of 0 to 100 where 0 is no effect and 100 is complete control) (johnsongrass; 31 g ai/ha): 10
- Plant response rating (scale of 0 to 100 where 0 is no effect and 100 is complete control) (johnsongrass; 62 g ai/ha): 20
- Plant response rating (scale of 0 to 100 where 0 is no effect and 100 is complete control) (johnsongrass; 125 g ai/ha): 10
- Plant response rating (scale of 0 to 100 where 0 is no effect and 100 is complete control) (johnsongrass; 250 g ai/ha): 20
- Plant response rating (scale of 0 to 100 where 0 is no effect and 100 is complete control) (nutsedge, yellow; 31 g ai/ha): 15
- Plant response rating (scale of 0 to 100 where 0 is no effect and 100 is complete control) (nutsedge, yellow; 62 g ai/ha): 25
- Plant response rating (scale of 0 to 100 where 0 is no effect and 100 is complete control) (nutsedge, yellow; 125 g ai/ha): 20
- Plant response rating (scale of 0 to 100 where 0 is no effect and 100 is complete control) (nutsedge, yellow; 250 g ai/ha): 25
- Plant response rating (scale of 0 to 100 where 0 is no effect and 100 is complete control) (pigweed [5]; 31 g ai/ha): 100
- Plant response rating (scale of 0 to 100 where 0 is no effect and 100 is complete control) (pigweed [5]; 62 g ai/ha): 100
- Plant response rating (scale of 0 to 100 where 0 is no effect and 100 is complete control) (pigweed [5]; 125 g ai/ha): 100
- Plant response rating (scale of 0 to 100 where 0 is no effect and 100 is complete control) (pigweed [5]; 250 g ai/ha): 100
- Plant response rating (scale of 0 to 100 where 0 is no effect and 100 is complete control) (ragweed; 31 g ai/ha): 65
- Plant response rating (scale of 0 to 100 where 0 is no effect and 100 is complete control) (ragweed; 62 g ai/ha): 75
- Plant response rating (scale of 0 to 100 where 0 is no effect and 100 is complete control) (ragweed; 125 g ai/ha): 75
- Plant response rating (scale of 0 to 100 where 0 is no effect and 100 is complete control) (ragweed; 250 g ai/ha): 75
- Plant response rating (scale of 0 to 100 where 0 is no effect and 100 is complete control) (barnyardgrass [6]; 31 g ai/ha): 25
- Plant response rating (scale of 0 to 100 where 0 is no effect and 100 is complete control) (barnyardgrass [6]; 62 g ai/ha): 30
- Plant response rating (scale of 0 to 100 where 0 is no effect and 100 is complete control) (barnyardgrass [6]; 125 g ai/ha): 35
- Plant response rating (scale of 0 to 100 where 0 is no effect and 100 is complete control) (barnyardgrass [6]; 250 g ai/ha): 35
- Plant response rating (scale of 0 to 100 where 0 is no effect and 100 is complete control) (oilseed rape; Oilsee Rape, 250 g ai/ha): 85
- Plant response rating (scale of 0 to 100 where 0 is no effect and 100 is complete control) (oilseed rape; Oilseed Rape, 31 g ai/ha): 50
- Plant response rating (scale of 0 to 100 where 0 is no effect and 100 is complete control) (oilseed rape; Oilseed Rape, 62 g ai/ha): 80
- Plant response rating (scale of 0 to 100 where 0 is no effect and 100 is complete control) (oilseed rape; Oilseed Rape, 125 g ai/ha): 85
- Plant response rating (scale of 0 to 100 where 0 is no effect and 100 is complete control) (velvetleaf; 31 g ai/ha): 60
- Plant response rating (scale of 0 to 100 where 0 is no effect and 100 is complete control) (velvetleaf; 62 g ai/ha): 55
- Plant response rating (scale of 0 to 100 where 0 is no effect and 100 is complete control) (velvetleaf; 125 g ai/ha): 60
- Plant response rating (scale of 0 to 100 where 0 is no effect and 100 is complete control) (velvetleaf; 250 g ai/ha): 60
- Plant response rating (scale of 0 to 100 where 0 is no effect and 100 is complete control) (chickweed; 31 g ai/ha): 55
- Plant response rating (scale of 0 to 100 where 0 is no effect and 100 is complete control) (chickweed; 62 g ai/ha): 80
- Plant response rating (scale of 0 to 100 where 0 is no effect and 100 is complete control) (chickweed; 125 g ai/ha): 65
- Plant response rating (scale of 0 to 100 where 0 is no effect and 100 is complete control) (chickweed; 250 g ai/ha): 85
- Plant response rating (scale of 0 to 100 where 0 is no effect and 100 is complete control) (oat, wild; 31 g ai/ha): 15
- Plant response rating (scale of 0 to 100 where 0 is no effect and 100 is complete control) (oat, wild; 62 g ai/ha): 30
- Plant response rating (scale of 0 to 100 where 0 is no effect and 100 is complete control) (oat, wild; 125 g ai/ha): 20
- Plant response rating (scale of 0 to 100 where 0 is no effect and 100 is complete control) (oat, wild; 250 g ai/ha): 35
- Plant response rating (scale of 0 to 100 where 0 is no effect and 100 is complete control) (kochia; 31 g ai/ha): 90
- Plant response rating (scale of 0 to 100 where 0 is no effect and 100 is complete control) (kochia; 62 g ai/ha): 90
- Plant response rating (scale of 0 to 100 where 0 is no effect and 100 is complete control) (kochia; 125 g ai/ha): 90
- Plant response rating (scale of 0 to 100 where 0 is no effect and 100 is complete control) (kochia; 250 g ai/ha): 90
